Measured values taken from patent US5672604A, “1-phenylmethyl benzimidazole piperazine derivative” (Fabrica Espanola de Productos Quimicos y Farmaceuticos …, priority 1993, dated 1997).
pIC50: −log10 of the molar value. Read-outs that look alike come from different tables or passages of the source.

Assays:
[1] = target: T1, 5HT3 receptor (Cavia porcellus, UniProt O70212); assay: Inhibition of 2-methyl-serotonin induced contraction of guinea pig ileum
T1 construct: Guinea pig ileum fragments; from tissue; host or cells: guinea pig ileum fragments
T1 sequence (O70212 20-490): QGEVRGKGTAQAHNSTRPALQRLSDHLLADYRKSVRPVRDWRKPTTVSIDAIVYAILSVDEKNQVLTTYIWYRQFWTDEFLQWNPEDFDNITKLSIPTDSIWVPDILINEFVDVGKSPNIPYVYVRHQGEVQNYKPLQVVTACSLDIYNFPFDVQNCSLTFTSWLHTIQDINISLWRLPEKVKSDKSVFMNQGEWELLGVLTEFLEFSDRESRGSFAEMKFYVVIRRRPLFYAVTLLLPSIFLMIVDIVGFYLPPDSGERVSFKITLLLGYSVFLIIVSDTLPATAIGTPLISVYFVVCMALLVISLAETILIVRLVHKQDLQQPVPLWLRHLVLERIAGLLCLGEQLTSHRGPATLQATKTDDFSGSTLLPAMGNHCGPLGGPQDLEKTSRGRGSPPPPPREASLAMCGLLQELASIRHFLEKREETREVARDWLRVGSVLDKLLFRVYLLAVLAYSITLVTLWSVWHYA
Procedure: b) Guinea pig ileum fragments were submerged in K-H solution at 37° C. pH 7.4, oxygenated with carbogen (95% O2 and 5% CO2) and with an effective preload of 1-2 g. They remained in a stabilization period for 45-60 minutes. and the physiological solution was replaced every 15 minutes. After this time, contractions were induced every 15 minutes, adding 2-methyl-serotonin (final conc.: 10 μmol/l). […] The inhibition percentages and CI50 were subsequently calculated (Table I).

[2] = test system: serotonin 5HT3 receptor; assay: Inhibition of serotonin-induced Bezold-Jarisch reflex in anaesthetised rat; type: in vivo, Wistar rats; details: i.v., 5 minutes before serotonin
Procedure: After the arterial pressure (A.P.) and cardiac frequency (C.F.) parameters were stabilised, bradycardia reflex was induced by i.v. injection (the different dose of the drug tested) of 80 μv/kg (1 ml/kg) of serotonin dissolved in sterile physiological serum. Ten minutes later and after taking CF and AP back to constant levels, the products claimed herein were injected i.v. and after a lapse of five minutes, i.v. injection of the serotonin creatinine sulphate complex was repeated, quantifying the inhibition of the Bezold-Jarisch reflex.

[3] = target: T2, 5HT3 (Rattus norvegicus, UniProt P35563); assay: Bind 5HT3 cort-ento; type: binding; details: read-out: Bind 5HT3 cort-ento pki (converted)
T2 construct: cort-ento; from tissue; host or cells: entorhinal cortex ('cort-ento')
T2 sequence (P35563 24-483): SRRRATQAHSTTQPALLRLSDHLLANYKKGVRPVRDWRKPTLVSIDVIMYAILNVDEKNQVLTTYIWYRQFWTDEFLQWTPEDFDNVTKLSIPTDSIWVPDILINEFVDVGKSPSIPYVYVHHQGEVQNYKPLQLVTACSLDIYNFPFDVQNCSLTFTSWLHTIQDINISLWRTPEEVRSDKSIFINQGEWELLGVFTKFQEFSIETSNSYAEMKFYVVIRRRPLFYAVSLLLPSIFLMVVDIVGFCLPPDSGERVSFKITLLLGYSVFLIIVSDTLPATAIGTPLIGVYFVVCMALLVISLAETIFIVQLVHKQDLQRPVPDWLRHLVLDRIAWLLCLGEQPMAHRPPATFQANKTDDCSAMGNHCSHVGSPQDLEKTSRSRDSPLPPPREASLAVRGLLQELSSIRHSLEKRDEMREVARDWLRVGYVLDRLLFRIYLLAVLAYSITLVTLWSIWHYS

[4] = guinea pig ileum, contraction by 2-methyl-serotonin 10 μmol/l, incubation 15 minutes, read-out: 2-me-5HT g.p. ileum CI50

SMILES	pIC50 [1, 4]	further results
Cc1ccc2c(c1)nc(N1CCNCC1)n2Cc1ccccc1 [Product 1, 5-methyl-1-phenylmethyl-2-piperazinyl-1H-benzimidazole]	7.55	–
Clc1ccc2c(c1)nc(N1CCNCC1)n2Cc1ccccc1 [Product 2]	–	pIC50 [1]: 8.14
O=[N+]([O-])c1ccc2c(c1)nc(N1CCNCC1)n2Cc1ccccc1 [Product 3]	7.98	B-J reflex rat-anaesth. DE50 [2]: 7.4 μg/kg iv; Ki [3]: 39.8 nM
Fc1ccc2c(c1)nc(N1CCNCC1)n2Cc1ccccc1 [Product 4]	8.78	–
Oc1ccc2c(c1)nc(N1CCNCC1)n2Cc1ccccc1 [Product 5]	6.93	–
Clc1cc2nc(N3CCNCC3)n(Cc3ccccc3)c2cc1Cl [Product 6]	6.58	–
